≈ marks a conversion by molar mass, not a printed value. Where two headings read alike, the source gives them in different places.
How the values were obtained:
Strept. faecium D = assay: MIC against Strept. faecium D; format: cell-based; details: Enterococcus faecium, clinical isolate resistant to the cephalosporin
Staph. 789 = assay: MIC against Staph. 789; format: cell-based; details: clinical isolate resistant to the cephalosporin
B. fragilis 312 = assay: MIC against B. fragilis 312; format: cell-based; details: Bacteroides fragilis, anaerobic
Ent. cl. M 423 = assay: MIC against Ent. cl. M 423; format: cell-based; details: clinical isolate resistant to the cephalosporin
Cl. tetani 19406 = assay: microbe, parasite or virus in culture; format: cell-based; details: Clostridium tetani
Staph. 22130 = assay: MIC against Staph. 22130; format: cell-based; details: clinical isolate resistant to the cephalosporin
B. thetaiotaomicron 123 = assay: MIC against B. thetaiotaomicron 123; format: cell-based; details: Bacteroides thetaiotaomicron, anaerobic
Ent. cl. P99 = assay: MIC against Ent. cl. P99; format: cell-based; details: clinical isolate resistant to the cephalosporin
B. fragilis 17390 = assay: MIC against B. fragilis 17390; format: cell-based; details: Bacteroides fragilis, anaerobic
B. distasonis 1366 = assay: MIC against B. distasonis 1366; format: cell-based; details: Parabacteroides distasonis
Citrob. 82 Cull. = assay: MIC against Citrob. 82 Cull.; format: cell-based
Staph. 285 = assay: MIC against Staph. 285; format: cell-based
Sph. varius 5262 = assay: MIC against Sph. varius 5262; format: cell-based; details: Fusobacterium varium, anaerobic
E. coli 2139E = assay: MIC against E. coli 2139E; format: cell-based; details: Escherichia coli
B. ovatus 103 = assay: MIC against B. ovatus 103; format: cell-based; details: Bacteroides ovatus, anaerobic
B. vulgatus 1446 = assay: MIC against B. vulgatus 1446; format: cell-based; details: Phocaeicola vulgatus, anaerobic
B. fragilis 960 = assay: MIC against B. fragilis 960; format: cell-based; details: Bacteroides fragilis, anaerobic
Strept. D 21777 = assay: MIC against Strept. D 21777; format: cell-based
Ent. cl. M. 447 = assay: MIC against Ent. cl. M. 447
Kl. aerog. 1082E = assay: MIC against Kl. aerog. 1082E; format: cell-based
Strept. D 26777 = assay: MIC against Strept. D 26777; format: cell-based
Staph. SG 511 = assay: MIC against Staph. SG 511; format: cell-based
Citrob. 2901 = assay: MIC against Citrob. 2901
B. fragilis 18125 = assay: MIC against B. fragilis 18125; format: cell-based; details: Bacteroides fragilis, anaerobic
Kl. pneu. 1976E = assay: MIC against Kl. pneu. 1976E; format: cell-based
Ent. cl. 2240 Cull. = assay: MIC against Ent. cl. 2240 Cull.; format: cell-based
Staph. 503 = assay: MIC against Staph. 503; format: cell-based

SMILES	MIC (Strept. faecium D)	MIC (Staph. 789)	MIC (B. fragilis 312)	MIC (Ent. cl. M 423)	MIC (Cl. tetani 19406)	MIC (Staph. 22130)	MIC (B. thetaiotaomicron 123)	MIC (Ent. cl. P99)	MIC (B. fragilis 17390)	MIC (Citrob. 82 Cull.)	MIC (Staph. 285)	MIC (Sph. varius 5262)	MIC (E. coli 2139E)	MIC (B. ovatus 103)	MIC (B. vulgatus 1446)	MIC (B. fragilis 960)	MIC (Strept. D 21777)	MIC (Ent. cl. M. 447)	MIC (Kl. aerog. 1082E)	MIC (Strept. D 26777)	also measured
CC(O)C1C(=O)N2C(C(=O)O)=C(Oc3ccc(C(N)=O)cc3)SC12 (stereo not drawn) [(1), sodium 5R,6S-6-(1R-hydroxyethyl)-3-(4-carbamoyl-phenoxy)-7-oxo-4-thia-1-azabicyclo[3.2.0]hept-2-ene-2-carboxylate]	8 µg/mL	4 µg/mL	0.125 µg/mL	4 µg/mL	0.25 µg/mL	2 µg/mL	0.125 µg/mL	2 µg/mL	0.25 µg/mL	1 µg/mL	0.062 µg/mL	0.25 µg/mL	1 µg/mL	0.125 µg/mL	0.125 µg/mL	0.125 µg/mL	8 µg/mL	16 µg/mL	0.5 µg/mL	8 µg/mL	MIC (B. distasonis 1366; B. distasonis 1366, read-out: MIC): 0.25 µg/mL; MIC (Staph. SG 511): 0.062 µg/mL; MIC (Citrob. 2901): 8 µg/mL; MIC (B. fragilis 18125): 0.25 µg/mL; MIC (Kl. pneu. 1976E): 1 µg/mL; MIC (Ent. cl. 2240 Cull.): 2 µg/mL; MIC (Staph. 503): 0.062 µg/mL
CO/N=C(\C(=O)N[C@@H]1C(=O)N2C(C(=O)O)=C(COC(C)=O)CS[C@H]12)c1csc(N)n1 [(2)]	64 µg/mL (≈ 141 µM)	64 µg/mL (≈ 141 µM)	128 µg/mL (≈ 281 µM)	64 µg/mL (≈ 141 µM)	8 µg/mL (≈ 17.6 µM)	32 µg/mL (≈ 70.3 µM)	64 µg/mL (≈ 141 µM)	64 µg/mL (≈ 141 µM)	8 µg/mL (≈ 17.6 µM)	2 µg/mL (≈ 4.39 µM)	2 µg/mL (≈ 4.39 µM)	64 µg/mL (≈ 141 µM)	0.031 µg/mL (≈ 0.0681 µM)	64 µg/mL (≈ 141 µM)	64 µg/mL (≈ 141 µM)	16 µg/mL (≈ 35.1 µM)	64 µg/mL (≈ 141 µM)	64 µg/mL (≈ 141 µM)	1 µg/mL (≈ 2.2 µM)	64 µg/mL (≈ 141 µM)	MIC (B. distasonis 1366; 1366): 0.125 µg/mL (≈ 0.274 µM); MIC (Staph. SG 511): 2 µg/mL (≈ 4.39 µM); MIC (Citrob. 2901): 64 µg/mL (≈ 141 µM); MIC (B. fragilis 18125): 2 µg/mL (≈ 4.39 µM); MIC (Kl. pneu. 1976E): 0.062 µg/mL (≈ 0.136 µM); MIC (Ent. cl. 2240 Cull.): 0.062 µg/mL (≈ 0.136 µM); MIC (Staph. 503): 2 µg/mL (≈ 4.39 µM)
